In patent publication US20050245563A1 (Millennium Pharmaceuticals, Inc., priority 2003, published 2005):

The molecules below were run against T1, human Chk1 (GST-Chk1) (Homo sapiens, UniProt O14757) (assay: Chk1 FlashPlate kinase assay). Conditions: 8.7 nM GST-Chk1, 1 uM ATP, 33P incorporation into peptide substrate.
T1 construct: made in house; host or cells: insect cells (baculovirus, Bac-to-Bac)
T1 sequence (O14757 1-476): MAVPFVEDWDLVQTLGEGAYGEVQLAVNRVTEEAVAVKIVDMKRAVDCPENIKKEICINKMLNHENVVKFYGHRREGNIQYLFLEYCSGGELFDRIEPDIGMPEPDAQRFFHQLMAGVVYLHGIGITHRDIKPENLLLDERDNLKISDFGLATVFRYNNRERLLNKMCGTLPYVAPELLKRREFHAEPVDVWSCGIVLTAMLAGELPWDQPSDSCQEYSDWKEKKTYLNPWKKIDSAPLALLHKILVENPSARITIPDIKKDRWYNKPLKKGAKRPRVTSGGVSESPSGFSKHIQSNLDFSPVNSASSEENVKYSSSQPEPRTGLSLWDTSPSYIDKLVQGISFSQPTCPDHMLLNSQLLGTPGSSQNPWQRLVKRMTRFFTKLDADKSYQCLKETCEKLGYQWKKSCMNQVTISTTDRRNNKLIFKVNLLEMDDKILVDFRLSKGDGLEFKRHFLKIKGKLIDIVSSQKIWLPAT
Type: biochemical
Method in brief: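 GST-tagged human Chk1 (8.7 nM), baculovirus-expressed, with 3 uM biotinylated peptide, 1 uM ATP plus ^33P-γ-ATP, in MES/EGTA pH 8.0, DTT, Tween 20, 4% DMSO; 30 min at room temperature. EDTA-stopped; phosphopeptide captured on streptavidin FlashPlates and ^33P counted by scintillation.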
`Cc1[nH]nc2c1c(=O)n(CCNC(=O)c1ccc(Cl)cc1)c1ccccc21` [Example 90, 4-Chloro-N-[2-(3-methyl-4-oxo-2,4-dihydro-pyrazolo[4,3-c]quinolin-5-yl)-ethyl]-benzamide] showed an IC50 of 1000 to 20000 nM.
`COc1ccc(C(=O)NCCn2c(=O)c3c(C)[nH]nc3c3ccccc32)cc1` [Example 91, 4-Methoxy-N-[2-(3-methyl-4-oxo-2,4-dihydro-pyrazolo[4,3-c]quinolin-5-yl)-ethyl]-benzamide] showed an IC50 of 1000 to 20000 nM.
`Cc1[nH]nc2c1c(=O)n(CCNC(=O)CCc1ccccc1)c1ccccc21` [Example 92, N-[2-(3-Methyl-4-oxo-2,4-dihydro-pyrazolo[4,3-c]quinolin-5-yl)-ethyl]-3-phenyl-propionamide] showed an IC50 of 1000 to 20000 nM.
`Cc1[nH]nc2c1c(=O)n(CCNC(=O)C1CCCCC1)c1ccccc21` [Example 93, Cyclohexanecarboxylic acid [2-(3-methyl4-oxo-2,4-dihydro-pyrazolo[4,3-c]quinolin-5-yl)-ethyl]-amide] gave an IC50 of 1000 to 20000 nM.
Molecule `Cc1[nH]nc2c1c(=O)n(CCNC(=O)C1CCCC1)c1ccccc21` [Example 94, Cyclopentanecarboxylic acid [2-(3-methyl-4-oxo-2,4-dihydro-pyrazolo[4,3-c]quinolin-5-yl)-ethyl]-amide] has an IC50 of 1000 to 20000 nM.
`Cc1[nH]nc2c1c(=O)n(CCCNC(=O)C(Cc1ccc(F)cc1)NC(=O)OC(C)(C)C)c1ccccc21` (stereo not shown) [Example 95, {2-(4-Fluoro-phenyl)-1-[3-(3-methyl-4-oxo-2,4-dihydro-pyrazolo[4,3-c]quinolin-5-yl)-propylcarbamoyl]-ethyl}-carbamic acid tert-butyl ester] showed an IC50 of 1000 to 20000 nM.
With `Cc1[nH]nc2c1c(=O)n(CCCNC(=O)C(Cc1ccc(Cl)cc1)NC(=O)OC(C)(C)C)c1ccccc21` (stereo not shown) [Example 96, {2-(4-Chloro-phenyl)-1-[3-(3-methyl-4-oxo-2,4-dihydro-pyrazolo[4,3-c]quinolin-5-yl)-propylcarbamoyl]-ethyl}-carbamic acid tert-butyl ester] the IC50 was > 20000 nM.
In the case of `Cc1n[nH]c2c1c(=O)n(CCNC(=O)C(Cc1ccccc1)NC(=O)OC(C)(C)C)c1ccccc21` (stereo not shown) [Example 97, {1-[2-(3-Methyl-4-oxo-1,4-dihydro-pyrazolo[4,3-c]quinolin-5-yl)-ethylcarbamoyl]-2-phenyl-ethyl}-carbamic acid tert-butyl ester], the IC50 is reported as 1000 to 20000 nM.
Work on `Cc1[nH]nc2c1c(=O)n(CCCNC(=O)C(Cc1ccc(OC(C)(C)C)cc1)NC(=O)OC(C)(C)C)c1ccccc21` (stereo not shown) [Example 98, {2-(4-tert-Butoxy-phenyl)-1-[3-(3-methyl-4-oxo-2,4-dihydro-pyrazolo[4,3-c]quinolin-5-yl)-propylcarbamoyl]-ethyl}-carbamic acid tert-butyl ester] yielded an IC50 of 1000 to 20000 nM.
`Cc1[nH]nc2c1c(=O)n(CCCNC(=O)CCC(NC(=O)OC(C)(C)C)C(=O)OC(C)(C)C)c1ccccc21` (stereo not shown) [Example 99, 2-tert-Butoxycarbonylamino-4-[3-(3-methyl-4-oxo-2,4-dihydro-pyrazolo[4,3-c]quinolin-5-yl)-propylcarbamoyl]-butyric acid tert-butyl ester] was tested, and the IC50 was 1000 to 20000 nM.
In the case of `Cc1[nH]nc2c1c(=O)n(CCCNC(=O)CCCNC(=O)OC(C)(C)C)c1ccccc21` [Example 100, {3-[3-(3-Methyl-4-oxo-2,4-dihydro-pyrazolo[4,3-c]quinolin-5-yl)-propylcarbamoyl]-propyl}-carbamic acid tert-butyl ester], the IC50 is reported as 1000 to 20000 nM.
Work on `Cc1[nH]nc2c1c(=O)n(CCCNC(=O)CCNC(=O)OC(C)(C)C)c1ccccc21` [Example 101, {2-[3-(3-Methyl-4-oxo-2,4-dihydro-pyrazolo[4,3-c]quinolin-5-yl)-propylcarbamoyl]-ethyl}-carbamic acid tert-butyl ester] yielded an IC50 of 1000 to 20000 nM.
For `Cc1[nH]nc2c1c(=O)n(CCCNC(=O)CNC(=O)OC(C)(C)C)c1ccccc21` [Example 102, {[3-(3-Methyl-4-oxo-2,4-dihydro-pyrazolo[4,3-c]quinolin-5-yl)-propylcarbamoyl]-methyl}-carbamic acid tert-butyl ester], the IC50 was 1000 to 20000 nM.
`Cc1[nH]nc2c1c(=O)n(CCCNC(=O)C1CCC(=O)N1)c1ccccc21` (stereo not shown) [Example 103, 5-Oxo-pyrrolidine-2-carboxylic acid [3-(3-methyl-4-oxo-2,4-dihydro-pyrazolo[4,3-c]quinolin-5-yl)-propyl]-amide] was tested, and the IC50 was < 1000 nM.
With `Cc1[nH]nc2c1c(=O)n(CCCNC(=O)[C@@H](N)Cc1ccc(F)cc1)c1ccccc21` [Example 104, 2-Amino-3-(4-fluoro-phenyl)-N-[3-(3-methyl-4-oxo-2,4-dihydro-pyrazolo[4,3-c]quinolin-5-yl)-propyl]-propionamide] the IC50 was < 1000 nM.
`Cc1n[nH]c2c1c(=O)n(CCNC(=O)C(N)Cc1ccccc1)c1ccccc21` (stereo not shown) [Example 105, 2-Amino-N-[2-(3-methyl-4-oxo-1,4-dihydro-pyrazolo[4,3-c]quinolin-5-yl)-ethyl]-3-phenyl-propionamide] was tested, and the IC50 was < 1000 nM.
In the case of `Cc1[nH]nc2c1c(=O)n(CCCNC(=O)CCCN)c1ccccc21` [Example 106, 4-Amino-N-[3-(3-methyl-4-oxo-2,4-dihydro-pyrazolo[4,3-c]quinolin-5-yl)-propyl]-butyramide], the IC50 is reported as < 1000 nM.
Molecule `Cc1[nH]nc2c1c(=O)n(CCCNC(=O)C(N)Cc1ccc(OCc3ccccc3)cc1)c1ccccc21` (stereo not shown) [Example 107, 2-Amino-3-(4-benzyloxy-phenyl)-N-[3-(3-methyl-4-oxo-2,4-dihydro-pyrazolo[4,3-c]quinolin-5-yl)-propyl]-propionamide] has an IC50 of 1000 to 20000 nM.
`Cc1[nH]nc2c1c(=O)n(CCCNC(=O)C(N)Cc1ccc(O)cc1)c1ccccc21` (stereo not shown) [Example 108, 2-Amino-3-(4-hydroxy-phenyl)-N-[3-(3-methyl-4-oxo-2,4-dihydro-pyrazolo[4,3-c]quinolin-5-yl)-propyl]-propionamide] was tested, and the IC50 was < 1000 nM.
For `NCCCn1c(=O)c2c[nH]nc2c2cc(Cl)ccc21` [Example 109, 5-(3-Amino-propyl)-8-chloro-2,5-dihydro-pyrazolo[4,3-c]quinolin-4-one], the IC50 was < 1000 nM.
In the case of `Cc1[nH]nc2c1c(=O)n(CCNS(=O)(=O)c1ccccc1)c1ccccc21` [Example 110, N-[2-(3-Methyl-4-oxo-2,4-dihydro-pyrazolo[4,3-c]quinolin-5-yl)-ethyl]-benzene sulfonamide], the IC50 is reported as 1000 to 20000 nM.
`Cc1[nH]nc2c1c(=O)n(CCNC(=O)N1CCOCC1)c1ccccc21` [Example 112, Morpholine-4-carboxylic acid [2-(3-methyl-4-oxo-2,4-dihydro-pyrazolo[4,3-c]quinolin-5-yl)-ethyl]-amide] gave an IC50 of 1000 to 20000 nM.
With `CCCCNc1ccc2c(c1)c1n[nH]c(C)c1c(=O)n2CCCN` [Example 116] the IC50 was < 1000 nM.
In the case of `Cc1[nH]nc2c1c(=O)n(CCCNC(=O)C(N)Cc1ccc(Cl)cc1)c1ccccc21` (stereo not shown) [Example 117, 2-Amino-3-(4-chloro-phenyl)-N-[3-(3-methyl-4-oxo-2,4-dihydro-pyrazolo[4,3-c]quinolin-5-yl)-propyl]-propionamide], the IC50 is reported as < 1000 nM.
With `Cc1[nH]nc2c1c(=O)n(CCCNC(=O)OCc1ccccc1Br)c1ccccc21` [Example 119, [3-(3-Methyl-4-oxo-2,4-dihydro-pyrazolo[4,3-c]quinolin-5-yl)-propyl]-carbamic acid 2-bromo-benzyl ester] the IC50 was < 1000 nM.
For `Cc1[nH]nc2c1c(=O)n(CCCN)c1ccc(N3CCCC3)cc21` [Example 120], the IC50 was < 1000 nM.
`Cc1[nH]nc2c1c(=O)n(CCCN)c1ccc(N3CCN(C)CC3)cc21` [Example 121, 5-(3-Amino-propyl)-3-methyl-8-(4-methyl-piperazin-1-yl)-2,5-dihydro-pyrazolo[4,3-c]quinolin-4-one] was tested, and the IC50 was < 1000 nM.
For `Cc1[nH]nc2c1c(=O)n(CCCNC(=O)CN)c1ccccc21` [Example 122, 2-Amino-N-[3-(3-methyl-4-oxo-2,4-dihydro-pyrazolo[4,3-c]quinolin-5-yl)-propyl]-acetamide], the IC50 was < 1000 nM.
For `Cc1[nH]nc2c1c(=O)n(CCCNC(=O)C(N)CCCCN)c1ccccc21` (stereo not shown) [Example 123, 2,6-Diamino-hexanoic acid [3-(3-methyl-4-oxo-2,4-dihydro-pyrazolo[4,3-c]quinolin-5-yl)-propyl]-amide], the IC50 was < 1000 nM.
`Cc1[nH]nc2c1c(=O)n(CCCNC(=O)CCN)c1ccccc21` [Example 124, 3-Amino-N-[3-(3-methyl-4-oxo-2,4-dihydro-pyrazolo[4,3-c]quinolin-5-yl)-propyl]-propionamide] was tested, and the IC50 was < 1000 nM.
In the case of `Cc1[nH]nc2c1c(=O)n(CCCNC(=O)c1ccc(OC(F)(F)F)cc1)c1ccccc21` [Example 125, N-[3-(3-Methyl-4-oxo-2,4-dihydro-pyrazolo[4,3-c]quinolin-5-yl)-propyl]-4-trifluoromethoxy-benzamide], the IC50 is reported as < 1000 nM.
